Key:
[1] = tested on: HSD fed diabetic rats; experiment: HSD fed insulin resistant diabetic rats; format: in vivo, rat
Protocol: Approximately 100 mg of soleus muscle tissue was taken and lysed with RIPA lysis buffer. Lysates were resolved on 12% SDS–polyacrylamide gels and were transferred to PVDF membrane (Millipore, USA). Membrane was blocked with 5% nonfat milk in TRIS buffered saline (TBS; 10 mM TRIS (pH 8.0), 150 mM NaCl) for 1 hour and probed with primary antibody of interest: phospho-AMPK (Thr^172) (1:1000; Cell Signaling Technology, USA), phospho-ACC (Ser^79) (1:1000; Cell Signaling Technology, USA), total AMPK (1:1000; Cell Signaling Technology, USA), total ACC (1:1000; Cell Signaling Technology, USA), and total Actin (1:1000; Santa Cruz Biotechnology, USA). Subsequently, membranes were incubated with corresponding HRP-conjugated secondary antibodies. The chemiluminescence signals were captured on photographic films using an enhanced chemiluminescence (Thermo Scientific, USA).The loading controls of phospho-ACC and phospho-AMPK in Fig. 6J were probed in parallel gels.
Twelve weeks old healthy colony bred male Wistar rats, weighing about 150–200 grams were purchased from the animal research facility (Cadila Pharma limited, Ahmedabad, India) and maintained at the animal house of Institute of pharmacy (Nirma University, India). All the methods were carried out in accordance with the approved guidelines. Experimental protocol involving animals was reviewed and approved by the Animal Ethical Committee of Institute of Science, Nirma University, Ahmedabad, India (Protocol No. IS/FAC/14-1/021) Animals were maintained in polypropylene cages in a standard photoperiod (12 h light:12 h dark cycle) and temperature (27 ± 1 °C) controlled room with the provision of laboratory food (Gold Mohur feeds Ltd, New Delhi, India) and water ad libitum. Animals were segregated into three different experimental groups with 6 animals in each as follows: non-diabetic group with standard chow diet (control group, CD), Diabetic group with high sucrose diet (65%, treated group, HSD)[84] and HSD with AMPK Activator-3 treated group (10 mg/kg body weight of animal). Post HSD induction animals were treated with AMPK Activator-3 for 30 days.
Animals were subjected to an OGTT at a beginning of the treatment (0 day) and a day before the end of the experiment (30 day). OGTT was performed after 12 h of the fasting. Briefly, after fasting, animals were given a glucose load (2 g/kg) orally. Blood samples were collected from the animal tail vein at 0 min (before glucose administration) and at 15, 30, 60, 90 and 120 min after glucose administration. Glucose concentration was determined using a CareSensN blood glucose monitor and glucose strips. Area under the curve for glucose (AUCglucose) was calculated using the trapezoidal rule.
Approximately, 1 ml of the blood samples was collected from the retro-orbital plexus of the animals under the mild anesthesia using diethyl ether. Blood was then transferred to the microfuge tubes for separation of plasma and serum at 0 day (start of the treatment) and the last day of the experiment (30 day). Total cholesterol and triglycerides levels were estimated from plasma using a diagnostic kit from Accucare India Ltd according to the protocol mentioned by the manufacturer.
Plasma FFA was estimated using chloroform and triethyalanomine extraction method by measuring the absorbance at 440 nm. The stearic acid was used as standard fatty acid and detailed protocol was performed as mentioned[85],[86]. […]

[2] = target: T1, recombinant human AMPK α2β2γ3 (Homo sapiens, UniProt Q9UGI9); experiment: In vitro AMP kinase assay (pACC ELISA), α2β2γ3; format: biochemical
T1 construct: purchased SignalChem; host or cells: baculovirus expression
T1 sequence (Q9UGI9 whole entry): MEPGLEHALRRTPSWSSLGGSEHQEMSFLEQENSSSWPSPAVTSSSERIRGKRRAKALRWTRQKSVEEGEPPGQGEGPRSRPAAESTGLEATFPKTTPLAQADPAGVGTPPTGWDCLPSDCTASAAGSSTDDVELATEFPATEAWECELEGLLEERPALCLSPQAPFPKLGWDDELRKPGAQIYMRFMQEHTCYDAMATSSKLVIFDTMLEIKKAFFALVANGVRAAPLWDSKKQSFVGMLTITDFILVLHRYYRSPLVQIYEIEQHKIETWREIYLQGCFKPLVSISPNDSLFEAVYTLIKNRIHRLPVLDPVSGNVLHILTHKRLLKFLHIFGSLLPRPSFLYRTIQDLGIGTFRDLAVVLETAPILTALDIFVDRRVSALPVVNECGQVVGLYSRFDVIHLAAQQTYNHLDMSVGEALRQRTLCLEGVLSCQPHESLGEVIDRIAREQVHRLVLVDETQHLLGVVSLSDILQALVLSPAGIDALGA
T1 sequence (P54646 whole entry partner): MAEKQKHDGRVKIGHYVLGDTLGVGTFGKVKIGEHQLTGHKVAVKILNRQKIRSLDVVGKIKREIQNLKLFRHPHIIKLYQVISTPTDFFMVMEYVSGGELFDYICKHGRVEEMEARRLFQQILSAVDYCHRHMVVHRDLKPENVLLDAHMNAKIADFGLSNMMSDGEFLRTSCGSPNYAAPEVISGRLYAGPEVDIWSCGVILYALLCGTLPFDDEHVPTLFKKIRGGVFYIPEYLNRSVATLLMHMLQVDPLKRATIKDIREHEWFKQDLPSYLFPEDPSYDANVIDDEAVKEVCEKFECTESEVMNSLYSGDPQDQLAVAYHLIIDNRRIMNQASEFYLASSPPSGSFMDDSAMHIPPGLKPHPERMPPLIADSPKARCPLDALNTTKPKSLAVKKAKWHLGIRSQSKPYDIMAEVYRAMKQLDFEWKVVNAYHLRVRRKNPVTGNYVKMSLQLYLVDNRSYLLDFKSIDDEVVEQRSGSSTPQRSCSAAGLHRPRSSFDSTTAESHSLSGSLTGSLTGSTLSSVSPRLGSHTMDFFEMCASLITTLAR
T1 sequence (O43741 whole entry partner): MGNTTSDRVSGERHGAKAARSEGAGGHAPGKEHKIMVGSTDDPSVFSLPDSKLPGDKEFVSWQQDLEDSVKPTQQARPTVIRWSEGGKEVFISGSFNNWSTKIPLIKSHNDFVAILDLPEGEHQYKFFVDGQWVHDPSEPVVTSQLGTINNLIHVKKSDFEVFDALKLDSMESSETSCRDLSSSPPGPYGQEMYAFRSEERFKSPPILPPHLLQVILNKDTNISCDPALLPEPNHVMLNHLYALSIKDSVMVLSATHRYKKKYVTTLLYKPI
Text: (§1) Having observed the effect of Activator-3 on the activation of AMPK in cell based assays, we next examined whether Activator-3 could activate AMPK directly or not. […] The activity of recombinant human AMPK (α1β1γ1, α2β1γ1, α2β2γ2 and α2β2γ3) in the presence of vehicle was considered as 100%. The EC50 of Activator-3 for the activation of α1β1γ1, α2β1γ1 and α2β2γ2 isozymes were similar. However, the activity of Activator-3 against α2β2γ3 was marginally higher (Fig. 1C).
(§2) A high binding Enzyme Immuno Assay (EIA) 96-well plate (Sigma: Cat# CLS3590) was coated with Acetyl CoA Carboxylase 2 (ACC: 175–271 amino acids) peptide, a direct substrate for AMPK, 100 ng per well (1:1000 ratio, Cat# 12–491, Upstate biotechnology) and incubated overnight at 25 °C. Reaction mixture was incubated at 30 °C for 2 h and reaction was stopped by washing the plate with 0.05% Tween 20 followed by incubation with pACC primary antibody and rabbit secondary antibody as described in cell based ELISA section. Assay buffer is composed of 10 mM DTT, 100 mM magnesium acetate, 50 μM ATP and 10 mM HEPES.

[3] = target: T2, PAK1 (Homo sapiens, UniProt Q13153); experiment: Cell-free kinase panel (Kinexus); format: biochemical; conditions: 10 µM
T2 construct: purchased Kinexus, Canada (screening service)
Protocol: (§3) To determine whether Activator-3 affects the activity of any other protein kinases, we screened it in cell-free assays against a panel of 100 protein kinases (Kinexus, Canada). […] Three kinases, DDR1 (−79%), SRC (−71%) and ALK5 (−61%) were inhibited by Activator-3 by more than 50% at 10 µM.

[4] = target: T3, PRK1 (Homo sapiens, UniProt Q16512); experiment: Cell-free kinase panel (Kinexus); format: biochemical; conditions: 10 µM
T3 construct: purchased Kinexus, Canada (screening service)
T3 sequence (Q16512 whole entry, species assumed): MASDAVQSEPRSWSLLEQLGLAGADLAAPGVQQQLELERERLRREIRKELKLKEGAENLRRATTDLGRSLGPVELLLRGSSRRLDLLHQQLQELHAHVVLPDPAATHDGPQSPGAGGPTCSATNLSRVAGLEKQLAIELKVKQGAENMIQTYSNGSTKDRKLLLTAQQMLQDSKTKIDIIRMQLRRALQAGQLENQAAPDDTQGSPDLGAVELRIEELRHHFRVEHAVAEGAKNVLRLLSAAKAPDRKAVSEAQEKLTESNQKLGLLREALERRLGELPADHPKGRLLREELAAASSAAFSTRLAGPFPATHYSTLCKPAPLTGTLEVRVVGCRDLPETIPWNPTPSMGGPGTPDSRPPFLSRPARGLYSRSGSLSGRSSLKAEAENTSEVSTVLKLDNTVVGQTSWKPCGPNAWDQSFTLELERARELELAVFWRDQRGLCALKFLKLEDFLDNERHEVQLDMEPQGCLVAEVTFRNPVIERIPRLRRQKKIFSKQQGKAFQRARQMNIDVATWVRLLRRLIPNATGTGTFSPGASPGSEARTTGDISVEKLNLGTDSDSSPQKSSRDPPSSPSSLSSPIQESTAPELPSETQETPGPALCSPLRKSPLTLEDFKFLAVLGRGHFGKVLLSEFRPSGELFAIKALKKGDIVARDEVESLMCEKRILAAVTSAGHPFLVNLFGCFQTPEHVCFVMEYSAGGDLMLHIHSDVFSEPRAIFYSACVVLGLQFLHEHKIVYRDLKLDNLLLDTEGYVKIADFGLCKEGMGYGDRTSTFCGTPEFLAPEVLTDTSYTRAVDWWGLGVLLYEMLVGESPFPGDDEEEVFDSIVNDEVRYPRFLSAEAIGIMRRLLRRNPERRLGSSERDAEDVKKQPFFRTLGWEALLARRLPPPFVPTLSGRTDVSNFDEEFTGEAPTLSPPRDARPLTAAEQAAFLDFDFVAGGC
Protocol: as §3

[5] = target: T4, ROR2 (Homo sapiens, UniProt Q01974); experiment: Cell-free kinase panel (Kinexus); format: biochemical; conditions: 10 µM
T4 construct: purchased Kinexus, Canada (screening service)
Protocol: as §3

[6] = target: T5, DDR1 (Homo sapiens, UniProt Q08345); experiment: Cell-free kinase panel (Kinexus); format: biochemical; conditions: 10 µM
T5 construct: purchased Kinexus, Canada (screening service)
Protocol: as §3

[7] = target: T6, SRC (Homo sapiens, UniProt P12931); experiment: Cell-free kinase panel (Kinexus); format: biochemical; conditions: 10 µM
T6 construct: purchased Kinexus, Canada (screening service)
T6 sequence (P12931 whole entry, species assumed): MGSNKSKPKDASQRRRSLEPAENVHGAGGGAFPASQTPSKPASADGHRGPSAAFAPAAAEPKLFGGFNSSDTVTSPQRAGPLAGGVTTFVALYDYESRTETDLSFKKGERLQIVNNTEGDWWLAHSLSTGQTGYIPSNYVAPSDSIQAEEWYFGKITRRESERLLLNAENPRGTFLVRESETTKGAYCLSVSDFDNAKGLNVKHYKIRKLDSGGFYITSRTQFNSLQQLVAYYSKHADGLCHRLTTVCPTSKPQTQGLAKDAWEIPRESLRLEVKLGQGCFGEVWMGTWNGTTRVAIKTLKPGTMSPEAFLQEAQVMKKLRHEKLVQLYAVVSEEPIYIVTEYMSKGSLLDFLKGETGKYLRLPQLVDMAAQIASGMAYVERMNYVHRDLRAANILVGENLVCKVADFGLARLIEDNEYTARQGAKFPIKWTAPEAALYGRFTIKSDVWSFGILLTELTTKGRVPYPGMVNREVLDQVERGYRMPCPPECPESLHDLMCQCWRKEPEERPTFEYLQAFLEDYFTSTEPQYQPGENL
Protocol: as §3

[8] = target: T7, ALK5 (Homo sapiens, UniProt P36897); experiment: Cell-free kinase panel (Kinexus); format: biochemical; conditions: 10 µM
T7 construct: purchased Kinexus, Canada (screening service)
T7 sequence (P36897 34-503, species assumed): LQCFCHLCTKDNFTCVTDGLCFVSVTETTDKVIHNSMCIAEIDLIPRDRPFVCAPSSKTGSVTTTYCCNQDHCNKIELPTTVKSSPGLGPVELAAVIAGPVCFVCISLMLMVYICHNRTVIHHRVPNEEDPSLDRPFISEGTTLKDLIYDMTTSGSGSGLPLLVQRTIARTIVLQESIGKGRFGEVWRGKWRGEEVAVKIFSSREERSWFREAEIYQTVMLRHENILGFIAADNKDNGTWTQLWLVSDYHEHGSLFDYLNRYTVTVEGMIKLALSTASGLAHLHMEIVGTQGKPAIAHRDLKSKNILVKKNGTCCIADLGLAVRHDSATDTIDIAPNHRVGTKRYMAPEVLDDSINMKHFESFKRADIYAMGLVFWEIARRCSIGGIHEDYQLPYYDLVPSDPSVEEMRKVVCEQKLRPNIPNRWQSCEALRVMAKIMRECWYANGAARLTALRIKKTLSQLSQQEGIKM
Protocol: as §3

[9] = target: T8, TAK1 (Homo sapiens, UniProt O43318); experiment: Cell-free kinase panel (Kinexus); format: biochemical; conditions: 10 µM
T8 construct: purchased Kinexus, Canada (screening service)
T8 sequence (O43318 1-303 limits assumed): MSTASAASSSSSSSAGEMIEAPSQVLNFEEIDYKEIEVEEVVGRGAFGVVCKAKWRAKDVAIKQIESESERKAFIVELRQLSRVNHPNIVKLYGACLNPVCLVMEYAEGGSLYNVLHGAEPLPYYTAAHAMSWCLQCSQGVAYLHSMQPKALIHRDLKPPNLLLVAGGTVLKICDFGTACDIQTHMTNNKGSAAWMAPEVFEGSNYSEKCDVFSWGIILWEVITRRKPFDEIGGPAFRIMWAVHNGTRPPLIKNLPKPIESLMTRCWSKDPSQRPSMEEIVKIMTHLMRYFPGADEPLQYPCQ
Protocol: as §3

[10] = target: T9, CAMKK2 (Homo sapiens, UniProt Q96RR4); experiment: Cell-free kinase panel (Kinexus); format: biochemical
T9 construct: purchased Kinexus, Canada (screening service)
T9 sequence (Q96RR4 whole entry, species assumed): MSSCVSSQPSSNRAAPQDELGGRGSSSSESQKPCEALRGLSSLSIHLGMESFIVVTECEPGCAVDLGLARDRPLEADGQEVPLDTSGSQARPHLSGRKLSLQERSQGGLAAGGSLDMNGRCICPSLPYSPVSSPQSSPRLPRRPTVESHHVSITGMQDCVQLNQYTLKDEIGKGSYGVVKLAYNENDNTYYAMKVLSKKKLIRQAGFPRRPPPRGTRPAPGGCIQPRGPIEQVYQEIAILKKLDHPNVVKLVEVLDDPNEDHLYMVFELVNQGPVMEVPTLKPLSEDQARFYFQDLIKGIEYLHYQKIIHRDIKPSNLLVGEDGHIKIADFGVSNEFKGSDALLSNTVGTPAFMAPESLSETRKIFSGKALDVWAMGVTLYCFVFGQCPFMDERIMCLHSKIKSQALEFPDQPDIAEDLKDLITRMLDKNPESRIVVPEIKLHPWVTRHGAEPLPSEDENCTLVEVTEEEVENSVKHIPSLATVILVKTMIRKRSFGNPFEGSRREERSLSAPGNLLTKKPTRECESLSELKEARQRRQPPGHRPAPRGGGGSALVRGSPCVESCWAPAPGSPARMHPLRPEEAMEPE
Protocol: as §3

[11] = target: T10, LRRK2 (Homo sapiens, UniProt Q5S007); experiment: Cell-free kinase panel (Kinexus); format: biochemical; conditions: 10 µM
T10 construct: purchased Kinexus, Canada (screening service)
Protocol: as §3

[12] = target: human recombinant AMPK α2β1γ1 (Homo sapiens, UniProt P54619); experiment: In vitro AMP kinase assay (pACC ELISA), α2β1γ1; format: biochemical; parameters: purchased SignalChem P47-10H-05/P48-10H-05 (for all four isozymes together); host or cells: baculovirus expression
Sequence of human recombinant AMPK α2β1γ1 (P54619 whole entry): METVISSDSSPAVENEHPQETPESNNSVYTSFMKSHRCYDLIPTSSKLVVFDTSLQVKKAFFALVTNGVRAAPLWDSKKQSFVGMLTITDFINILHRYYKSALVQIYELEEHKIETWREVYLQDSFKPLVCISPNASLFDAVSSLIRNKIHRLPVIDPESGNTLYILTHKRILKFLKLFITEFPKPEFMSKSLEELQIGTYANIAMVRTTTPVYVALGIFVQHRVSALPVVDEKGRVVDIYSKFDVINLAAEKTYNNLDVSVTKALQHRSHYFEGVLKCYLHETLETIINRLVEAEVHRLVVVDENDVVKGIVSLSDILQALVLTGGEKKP
Sequence of human recombinant AMPK α2β1γ1 (P54646 whole entry partner): as the sequence (P54646 whole entry partner) above
Sequence of human recombinant AMPK α2β1γ1 (Q9Y478 whole entry partner): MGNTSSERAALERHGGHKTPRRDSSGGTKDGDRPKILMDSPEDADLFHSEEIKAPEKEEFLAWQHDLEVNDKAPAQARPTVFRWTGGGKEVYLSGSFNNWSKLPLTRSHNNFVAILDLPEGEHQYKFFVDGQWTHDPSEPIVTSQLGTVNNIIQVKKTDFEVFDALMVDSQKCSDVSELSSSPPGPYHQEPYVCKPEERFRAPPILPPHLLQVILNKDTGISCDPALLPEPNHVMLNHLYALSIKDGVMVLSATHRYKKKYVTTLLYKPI
Text: as §1, §2

[13] = 10 mg/kg oral once a day, 30th day

increase of AMPK activity over 100 µM AMP alone ([2]; co-treatment Activator-3 and 100 µM AMP): > 30%
EC50 ([2]; read-out: EC50 allosteric activation hα2β2γ3): ~4 nM
activity change [3]: −42%
activity change [4]: −36%
activity change [5]: −35%
activity change [6]: −79%
activity change [7]: −71%
activity change [8]: −61%
effect on kinase activity [9]: not affected
inhibition at 10 µM [10]: 36%
activity change [11]: −34%
reduction of AMPK activity stimulated by 100 µM AMP ([12]; Activator-3 1 nM to 10 μM with 100 µM AMP): ~ 50%
EC50 ([12]; read-out: EC50 allosteric activation hα2β1γ1): ~23 nM
Compound: O=C(O)Cc1csc(Nc2ccc(C(F)(F)F)cc2)n1 [Activator-3, 2-[2-(4-(trifluoromethyl)phenylamino)thiazol-4-yl]acetic acid]
glucose concentration in OGTT vs HSD group [1, 13]: significantly reduced
plasma free fatty acid vs HSD group [1, 13]: significantly lower
plasma total cholesterol vs HSD group [1, 13]: significantly lower
HSD induced body weight gain ([1]; 10 mg/kg oral once a day, 30 days, p < 0.05): decreased
phosphorylation of AMPK and ACC in soleus muscle ([1]; 10 mg/kg/day for 30 days, western blot): restored

Reference: publication PMC6018554, “2-[2-(4-(trifluoromethyl)phenylamino)thiazol-4-yl]acetic acid (Activator-3) is a potent activator of AMPK” (Scientific Reports, 2018)
